Assay results taken from US7709511B2, “Benzothiazolone derivatives” (AstraZeneca AB, priority 2005, dated 2010).
Counter-ions that a name gives are not always drawn.

Experiments:
[1] = biological target: T1, recombinant human Dopamine Subtype D2s receptors (Homo sapiens, UniProt P14416); experiment: Dopamine D2 selectivity assay, inhibition of [3H]-spiperone binding to membranes; conditions: [3H]-spiperone 0.16 nM; read-out: D2 bind pIC50 (converted)
T1 construct: purchased Perkin Elmer
Experimental: (§1) Membranes containing recombinant human Dopamine Subtype D2s receptors were obtained from Perkin Elmer. These were diluted in Assay Buffer (50 mM HEPES, 1 mM EDTA, 120 mM NaCl, 0.1% gelatin, pH 7.4) to provide a final concentration of membranes that gave a clear window between maximum and minimum specific binding.
Assays were performed in U-bottomed 96-well polypropylene plates. 30 μL [^3H]-spiperone (0.16 nM final concentration) and 30 μL of test compound (10× final concentration) were added to each test well. For each assay plate 8 replicates were obtained for [^3H]-spiperone binding in the presence of 30 μL vehicle (10% (v/v) DMSO in Assay Buffer; defining maximum binding) or 30 μL Haloperidol (10 μM final concentration; defining non-specific binding (NSB)). Membranes were then added to achieve a final volume of 300 μL. The plates were incubated for 2 hours at room temperature and then filtered onto PEI coated GF/B filter plates, pre-soaked for 1 hour in Assay Buffer, using a 96-well plate Tomtec cell harvester. Five washes with 250 μL wash buffer (50 mM HEPES, 1 mM EDTA, 120 mM NaCl, pH 7.4) were performed at 4° C. to remove unbound radioactivity. The plates were dried then sealed from underneath using Packard plate sealers and MicroScint-O (50 μL) was added to each well. The plates were sealed (TopSeal A) and filter-bound radioactivity was measured with a scintillation counter (TopCount, Packard BioScience) using a 3-minute counting protocol.
Total specific binding (B0) was determined by subtracting the mean NSB from the mean maximum binding. NSB values were also subtracted from values from all other wells. […] Data was fitted to a four parameter logistic equation to determine the compound potency, which was expressed as pIC50 (negative log molar concentration inducing 50% inhibition of [^3H]-spiperone binding).

[2] = biological target: T2, recombinant human adrenergic beta 1 receptors (Homo sapiens, UniProt P08588); experiment: Adrenergic β1 selectivity assay, inhibition of [125I]-Iodocyanopindolol binding to membranes; conditions: [125I]-Iodocyanopindolol 0.036 nM; read-out: β1 bind p IC50 (converted)
T2 construct: purchased Euroscreen
Experimental: as §1, with “adrenergic beta 1” for “Dopamine Subtype D2s”, “Euroscreen.” for “Perkin Elmer.”
Assays were performed in U-bottomed 96-well polypropylene plates. 10 μL [^125I]-Iodocyanopindolol (0.036 nM final concentration) and 10 μL of test compound (10× final concentration) were added to each test well. For each assay plate 8 replicates were obtained for [^125I]-Iodocyanopindolol binding in the presence of 10 μL vehicle (10% (v/v) DMSO in Assay Buffer; defining maximum binding) or 10 μL Propranolol (10 μM final concentration; defining non-specific binding (NSB)). Membranes were then added to achieve a final volume of 100 μL. […] Five washes with 250 μL wash buffer (50 mM HEPES, 1 mM EDTA, 120 mM NaCl, pH 7.4) were performed at 4° C. to remove unbound radioactivity. […] The plates were sealed (TopSeal A) and filter-bound radioactivity was measured with a scintillation counter (TopCount, Packard BioScience) using a 3-minute counting protocol.
Total specific binding (B0) was determined by subtracting the mean NSB from the mean maximum binding. […]

Adrenergic β2 = biological target: T3, Adrenergic β2 (Homo sapiens, UniProt P07550); experiment: Alternative adrenergic β2 mediated cAMP production in H292 cells (AlphaScreen cAMP detection); assay type: cell-based; conditions: for EC50: cAMP, test compounds incubated 60 minutes at room temperature, 300 μM rolipram, read-out: β2 pEC50 (converted); for β2 Int Act: fraction relative to the maximum activity determined for formoterol, 60 minutes incubation
T3 construct: endogenous in cells; host or cells: H292 cells
Experimental: Alternative Adrenergic β2 Mediated cAMP Production Cell Preparation
H292 cells were grown in 225 cm2 flasks incubator at 37° C., 5% CO2 in RPMI medium containing, 10% (v/v) FBS (foetal bovine serum) and 2 mM L-glutamine.
Adherent H292 cells were removed from tissue culture flasks by treatment with Accutase™ cell detachment solution for 15 minutes. Flasks were incubated for 15 minutes in a humidified incubator at 37° C., 5% CO2. Detached cells were re-suspended in RPMI media (containing 10% (v/v) FBS and 2 mM L-glutamine) at 0.05×10^6 cells per mL. 5000 cells in 100 μL were added to each well of a tissue-culture-treated 96-well plate and the cells incubated overnight in a humidified incubator at 37° C., 5% CO2. The culture media was removed and cells were washed twice with 100 μL assay buffer and replaced with 50 μL assay buffer (HBSS solution containing 10 mM HEPES pH7.4 and 5 mM glucose). Cells were rested at room temperature for 20 minutes after which time 25 μL of rolipram (1.2 mM made up in assay buffer containing 2.4% (v/v) dimethylsulphoxide) was added. Cells were incubated with rolipram for 10 minutes after which time test compounds were added and the cells were incubated for 60 minutes at room temperature. The final rolipram concentration in the assay was 300 μM and final vehicle concentration was 1.6% (v/v) dimethylsulphoxide. The reaction was stopped by removing supernatants, washing once with 100 μL assay buffer and replacing with 50 μL lysis buffer. The cell monolayer was frozen at −80° C. for 30 minutes (or overnight).
AlphaScreen™ cAMP Detection
The concentration of cAMP (cyclic adenosine monophosphate) in the cell lysate was determined using AlphaScreen™ methodology. The frozen cell plate was thawed for 20 minutes on a plate shaker then 10 μL of the cell lysate was transferred to a 96-well white plate. 40 μL of mixed AlphaScreen™ detection beads pre-incubated with biotinylated cAMP, was added to each well and the plate incubated at room temperature for 10 hours in the dark. The AlphaScreen™ signal was measured using an EnVision spectrophotometer (Perkin-Elmer Inc.) with the recommended manufacturer's settings. cAMP concentrations were determined by reference to a calibration curve determined in the same experiment using standard cAMP concentrations. Concentration response curves for agonists were constructed and data was fitted to a four parameter logistic equation to determine both the pEC50 and Intrinsic Activity. Intrinsic Activity was expressed as a fraction relative to the maximum activity determined for formoterol in each experiment.

T3 sequence (P07550 whole entry): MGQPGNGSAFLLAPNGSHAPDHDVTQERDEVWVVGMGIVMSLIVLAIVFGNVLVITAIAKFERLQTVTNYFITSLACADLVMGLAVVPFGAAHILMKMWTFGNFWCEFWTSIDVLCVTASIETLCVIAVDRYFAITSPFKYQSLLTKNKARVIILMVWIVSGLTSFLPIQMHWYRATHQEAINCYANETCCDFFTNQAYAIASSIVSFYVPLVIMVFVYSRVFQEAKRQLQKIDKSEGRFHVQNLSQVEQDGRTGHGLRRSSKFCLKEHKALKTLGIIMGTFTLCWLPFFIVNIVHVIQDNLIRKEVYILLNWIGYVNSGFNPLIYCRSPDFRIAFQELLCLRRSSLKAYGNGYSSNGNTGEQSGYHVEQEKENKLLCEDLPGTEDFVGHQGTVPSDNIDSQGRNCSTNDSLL
T2 sequence (P08588 whole entry): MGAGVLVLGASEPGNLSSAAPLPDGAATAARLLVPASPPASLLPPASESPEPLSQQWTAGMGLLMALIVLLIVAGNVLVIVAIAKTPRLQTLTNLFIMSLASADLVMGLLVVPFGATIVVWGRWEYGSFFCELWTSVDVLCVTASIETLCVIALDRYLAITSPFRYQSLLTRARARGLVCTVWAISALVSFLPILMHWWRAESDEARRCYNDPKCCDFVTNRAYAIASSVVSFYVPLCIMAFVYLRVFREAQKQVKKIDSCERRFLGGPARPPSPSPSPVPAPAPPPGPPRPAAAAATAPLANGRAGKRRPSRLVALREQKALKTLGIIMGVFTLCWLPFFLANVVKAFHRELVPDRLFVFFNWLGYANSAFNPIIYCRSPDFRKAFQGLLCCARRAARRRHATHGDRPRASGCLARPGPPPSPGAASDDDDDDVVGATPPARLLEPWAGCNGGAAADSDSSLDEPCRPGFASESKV
T1 sequence (P14416 1-414 isoform P14416-2): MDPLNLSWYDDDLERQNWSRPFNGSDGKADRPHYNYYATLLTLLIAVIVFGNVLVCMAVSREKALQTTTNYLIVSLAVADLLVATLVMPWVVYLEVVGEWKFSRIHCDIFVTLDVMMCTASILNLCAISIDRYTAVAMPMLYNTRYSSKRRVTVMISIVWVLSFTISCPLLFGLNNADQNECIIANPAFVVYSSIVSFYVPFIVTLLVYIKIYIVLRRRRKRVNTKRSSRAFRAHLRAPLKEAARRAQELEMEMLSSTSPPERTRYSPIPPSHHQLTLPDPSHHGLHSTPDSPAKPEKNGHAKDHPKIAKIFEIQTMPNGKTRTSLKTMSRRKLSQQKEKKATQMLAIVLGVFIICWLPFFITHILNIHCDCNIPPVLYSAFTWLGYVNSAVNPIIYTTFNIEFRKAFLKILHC

CCN(CC)CCN(CCNCCc1ccc(O)c2[nH]c(=O)sc12)C(=O)CCOCCc1cccc(C)c1 [Example 28, N-[2-(Diethylamino)ethyl]-N-(2-{[2-(4-hydroxy-2-oxo-2,3-dihydro-1,3-benzothiazol-7-yl)ethyl]amino}ethyl)-3-[2-(3-methylphenyl)ethoxy]propanamide] showed an IC50 [1] of 1000 nM, an IC50 [2] of 1000 nM and an EC50 (Adrenergic β2) of 3.16 nM. For the same compound, the “β2 Int Act” value (Adrenergic β2) was 0.6.

In the case of CCN(CC)CCN(CCNCCc1ccc(O)c2[nH]c(=O)sc12)C(=O)CCOCCc1ccc(Cl)cc1 [Example 26, 3-[2-(4-Chlorophenyl)ethoxy]-N-(2-diethylaminoethyl)-N-{2-[2-(4-hydroxy-2-oxo-2,3-dihydro-1,3-benzothiazol-7-yl)ethylamino]ethyl}propanamide dihydrobromide], the IC50 [1] is reported as 1260 nM, the IC50 [2] is reported as 1000 nM and the EC50 (Adrenergic β2) is reported as 15.8 nM. The “β2 Int Act” value (Adrenergic β2) was 0.6.
